According to EP1311486B1, “USES OF THALIPORPHINE OR ITS DERIVATIVES IN TREATMENT OF CARDIAC DISEASES AND PREPARATION OF SAME” (Lotus Pharmaceutical Co., Ltd., priority 2000, dated 2002):
Marks after values point to notes of the source that are not given here.

Legend:
atria or ventricles = experiment: Action potential duration in atria or ventricles; conditions: 3-10µM, data not shown
Method: Moreover, 3-10µM THP prolongs the action potential duration in the atria or ventricles of both rats and guinea pigs (data not shown).

[1] = tested on: Human low density lipoprotein (LDL); experiment: Copper-induced lipid peroxidation of LDL (TBARS formation); assay type: biochemical; conditions: LDL 100µg/ml, 37°C, CuSO4 12 hours
Method: Human low density lipoprotein (LDL, 100µg/ml) was preincubated with DMSO (0.1%, basal and control) or various concentrations of THP at 37°C for 10 minutes, and then CuSO4 was added, except for basal, and incubated for another 12 hours to determine the impact of THP on lipid peroxidation.
The impact of THP on lipid peroxidation is further assessed by evaluating its effect on the formation of TBARS (thiobarbituric acid-reactive substance) from LDL. Exposure of LDL to CuSO4 within 12 hours results in the peroxidation of LDL, as indicated by the increased content of TBARS (FIG. 3).

[2] = tested on: isolated guinea pig hearts; experiment: Reperfusion-induced ventricular fibrillation in isolated guinea pig hearts subjected to global ischemia
Method: The isolated guinea pig hearts were ligated by global ischemia. Reperfusion was achieved by releasing the tension applyied to the ligature. Various concentrations of THP were then administered and the ventricular fibrillarion (VF) was recorded. Table 1 Effects of THP on reperfusion-induced ventricular fibrillation in isolated guinea pig hearts subjected to global ischemia
Similarly, 10µM THP can be effective in inhibiting the cardiac arrhythmia induced in the isolated guinea pig heart subjected to global ischemia followed by reperfusion (Table 1). The structure of coronary arteries between rat and guinea pig are not alike, THP, however, can be effective in inhibiting the arrhythmia induced in the isolated heart subjected to ischemia-reperfusion in both animals.

[3] = tested on: guinea pig right ventricular strips; experiment: Ouabain-induced arrhythmia in electrically driven right ventricular strips; conditions: 10-20µM after 0.6-0.8µM ouabain
Method: The arrhythmia was then induced 5-10 minutes after. 10-20µM THP or its derivatives were administered to reverse the ouabain-induced arrhythmia. 6-7.
Referring to FIGs. […] The arrhythmia is then induced 5-10 minutes after.

in vivo anesthetized rat = experiment: Ischemia-induced arrhythmias in the anesthetized rat (30 minutes coronary occlusion)
Method: (§1) Myocardial ischemia was performed by a temporary tightening of the silk ligature around the left main coronary artery. Reperfusion was achieved by releasing the tension applied to the ligature (operated groups). Sham operated animals underwent all surgical procedures, apart from the fact that the silk, passing around the left coronary artery, was not tied (sham groups). Animals were infused with a bolus of THP (3.5x10^-7, 3.5x10^-6, 3.5x10^-5 g/kg), L-NAME (N^∞-nitro-L-arginine methyl ester; 1x10^-3 g/kg) or vehicle (dimethyl sulfoxide/ NaCl 0.9%, 1:10^3; v/v) from a jugular vein 15 minutes before coronary occlusion. The coronary artery was occluded for 30 minutes or 5 minutes followed by 30 minutes reperfusion and with the animals then divided randomly in the following groups: (1) sham + vehicle; (2) sham + THP (3.5x10^-5g/kg); (3) operated + vehicle; (4) operated + THP (3.5x10^-7 g/kg); (5) operated + THP (3.5x10^-6 g/kg); (6) operated + THP (3.5x10^-5 g/kg); (7) operated + L-NAME (1x10^-3 g/kg) + THP (3.5x10^-5 g/kg). Before and during the ischemia or reperfusion period, heart rate (HR), blood pressure (BP) and ECG changes were recorded. Ventricular ectopic activity was evaluated according to the diagnostic criteria advocated in the Lambeth Convention. The incidence and duration of ventricular tachyarrhythmias, including ventricular tachycardia (VT) and ventricular fibrillation (VF), in surviving animals was determined. The Mann-Whitney rank-sum test was used to analyze the differences in the duration of VT and VF between vehicle and drug treated groups. The BP and HR changes between vehicle and drug treated rats in the arrhythmia study were analyzed by ANOVA (analysis of variance) followed by Bonferroni's test. The difference in the percentage incidence of VT, VF and mortality rate was analyzed with a Chi-square test. Table 2 Effect of THP on ischemia-induced arrhythmias in the in vivo anesthetized rat
In ischemic condition, severe ventricular arrhythmias in the vehicle group begins after 6-7 minutes of coronary artery occlusion, peaks after 8-12 minutes, and normally subsides after approximately 15 minutes from initiation. The duration of VF is calculated to be 32.1±8.9 seconds, and the duration of VT is 36.8±8.8 seconds. […] Administration of THP at 3.5x10^-5 g/kg results in a decrease of the incidence of VT and VF to 10% and 0%, respectively (p<0.05). […] A particular important finding is the very effective reduction of mortality even at very low dose of THP 3.5x 10^-7 g/kg.

plasma LDH = experiment: Plasma LDH release at the end of ischemia or ischemia-reperfusion; assay type: in vivo, rats; conditions: for LDH (U/L) release, Ischemic / LDH (U/L) release, Reperfused: Operated
Method: as §1
Cellular damage was evaluated by measuring the plasma LDH. Arterial blood samples were drawn from the carotid catheter at the end of ischemia or ischemia-reperfusion, collected in heparinized tubes. The blood was kept at 4°C until it was centrifuged at 2000 xg for 15 minutes. The plasma was recovered and aliquots were used for determination of LDH activity with a commercial kit from Sigma. The deproteinized plasma samples were frozen and kept until analysis. NO was measured by the NO/ozone chemiluminescence technique described in Yanu F. et al., (1997) Clin. Chem. 43:657-662. The difference in plasma NO and LDH were analyzed statistically using unpaired Student's t-test. Table 5 Effects of THP on LDH (U/L) release
The biochemical indicator of cellular damage (LDH release) is determined in ischemia and the ischemia-reperfusion period. Low LDH activity can be seen in the control group (123.6±20.6 U/L) before occlusion. After the occlusion or occlusion-reperfusion, a large increase of the enzyme is found in the plasma of rats given operated-vehicle (500.5±81.4 U/L and 273.7±29.2 U/L, respectively). However, administration of THP attenuates LDH release with a dose-dependent manner during ischemia or ischemia-reperfusion (Table 5).

inward sodium current = conditions: Su MJ, et al., Eur. J. Pharmacol., 1994; cited from earlier work

Which action potential duration (atria or ventricles; atria or ventricles of guinea pigs) does the source give for COc1cc2c(cc1OC)-c1c(O)c(OC)cc3c1C(C2)N(C)CC3 (single isomer, unassigned; (+)) [THP, (+)-Thaliporphine] here?
Its action potential duration is “prolongs”.

What about the action potential duration (atria or ventricles; atria or ventricles of rats) of the same molecule?
The action potential duration was “prolongs”.

And the IC50 [1]?
Its IC50 is 15.7 µM.

And the “%VF” value ([2]; 3 µM)?
The value was 25* %.

What about the “VF (number of hearts)” value ([2]; 3 µM, N 8) of the same molecule?
The value was 2.

And the “%VF” value ([2]; 10 µM)?
Its value is 0* %.

What about the “VF (number of hearts)” value ([2]; 10 µM, N 6) of the same molecule?
Its value is 0.

And the “reversal of ouabain-induced arrhythmia” value [3]?
Its value is “effective in reversing the arrhythmia”.

What about the “Mortality (%)” value (in vivo anesthetized rat; THP 3.5x10^-5 g/kg i.v.) of the same molecule?
Its value is 0%.

What about the “VF Duration” value (in vivo anesthetized rat; THP 3.5x10^-5 g/kg i.v.) of the same molecule?
The value was 0.0 ± 0.0 s.

And the “VF Incidence(%)” value (in vivo anesthetized rat; THP 3.5x10^-5 g/kg i.v.)?
Its value is 0%.

And the “VT Duration” value (in vivo anesthetized rat; THP 3.5x10^-5 g/kg i.v.)?
Its value is 0.3 ± 0.3 s.

And the “VT Incidence(%)” value (in vivo anesthetized rat; THP 3.5x10^-5 g/kg i.v.)?
Its value is 10%.

What about the “Mortality (%)” value (in vivo anesthetized rat; THP 3.5x10^-6 g/kg i.v.) of the same molecule?
Its value is 0%.

What about the “VF Duration” value (in vivo anesthetized rat; THP 3.5x10^-6 g/kg i.v.) of the same molecule?
The value was 0.5 ± 0.5 s.

And the “VF Incidence(%)” value (in vivo anesthetized rat; THP 3.5x10^-6 g/kg i.v.)?
The value was 10%.

And the “VT Duration” value (in vivo anesthetized rat; THP 3.5x10^-6 g/kg i.v.)?
Its value is 5.7 ± 3.3 s.

And the “VT Incidence(%)” value (in vivo anesthetized rat; THP 3.5x10^-6 g/kg i.v.)?
Its value is 50* %.

What about the “Mortality (%)” value (in vivo anesthetized rat; THP 3.5x10^-7 g/kg i.v.) of the same molecule?
The value was 0%.

And the “VF Duration” value (in vivo anesthetized rat; THP 3.5x10^-7 g/kg i.v.)?
The value was 6.7 ± 4.9 s.

What about the “VF Incidence(%)” value (in vivo anesthetized rat; THP 3.5x10^-7 g/kg i.v.) of the same molecule?
Its value is 20%.

What about the “VT Duration” value (in vivo anesthetized rat; THP 3.5x10^-7 g/kg i.v.) of the same molecule?
Its value is 16.1 ± 7.4 s.

And the “VT Incidence(%)” value (in vivo anesthetized rat; THP 3.5x10^-7 g/kg i.v.)?
The value was 60%.

And the “LDH (U/L) release, Ischemic” value (plasma LDH; THP 3.5x10^-5 g/kg)?
Its value is 132.2±33.2 U/L.

What about the “LDH (U/L) release, Reperfused” value (plasma LDH; THP 3.5x10^-5 g/kg) of the same molecule?
Its value is 143.8±11.7 U/L.

And the “LDH (U/L) release, Ischemic” value (plasma LDH; THP 3.5x10^-6 g/kg)?
Its value is 171.7±56.9 U/L.

And the “LDH (U/L) release, Reperfused” value (plasma LDH; THP 3.5x10^-6 g/kg)?
The value was 219.6±31.0 U/L.

And the “LDH (U/L) release, Ischemic” value (plasma LDH; THP 3.5x10^-7 g/kg)?
Its value is 349.5±55.0 U/L.

And the “LDH (U/L) release, Reperfused” value (plasma LDH; THP 3.5x10^-7 g/kg)?
The value was 202.2±30.4 U/L.

What about the “LDH (U/L) release, Non-ischemic” value (plasma LDH; Sham-operated, THP 3.5x10^-5 g/kg) of the same molecule?
Its value is 92.6±7.5 U/L.

And the inward sodium current (inward sodium current)?
The inward sodium current was “inhibit”.
